Measurements taken from patent publication US20200079765A1, “SUBSTITUTED HETEROARYL PYRROLONES AND SALTS THEREOF AND USE THEREOF AS HERBICIDAL ACTIVE SUBSTANCES” (Bayer CropScience Aktiengesellschaft, priority 2016, published 2020).

Key:
Format in all cases: in vivo
Abutilon theophrasti [1] = test: Post-emergence herbicidal action (Experimental Part 1, A); settings: about 3 weeks after treatment, 100% = plants have died, 0% = like control plants
Description: (§1) Seeds of monocotyledonous and dicotyledonous weeds and crop plants were placed in sandy loam in plastic or wood-fiber pots, covered with soil and cultivated in a greenhouse under controlled growth conditions. 2 to 3 weeks after sowing, the test plants were treated at the one-leaf stage. The compounds of the invention, formulated in the form of wettable powders (WP) or as emulsion concentrates (EC), were then sprayed onto the green parts of the plants as aqueous suspension or emulsion with addition of 0.5% additive at a water application rate of 600 l/ha (converted). After the test plants had been kept in the greenhouse under optimum growth conditions for about 3 weeks, the activity of the preparations was rated visually in comparison to untreated controls. For example, 100% activity=the plants have died, 0% activity=like control plants. Tables A1 to A14 below show the effects of selected compounds of the general formula (I) according to Tables I.1 to I.116 on various harmful plants and an application rate corresponding to 1280 g/ha or 320 g/ha, which were obtained by the experimental procedure mentioned above.

Alopecurus myosuroides [2] = test: as above; settings: application rate 320 g/ha, about 3 weeks after treatment, 100% = plants have died, 0% = like control plants
Description: as §1

Amaranthus retroflexus [3] = test: as above; settings: about 3 weeks after treatment, 100% = plants have died, 0% = like control plants
Description: as §1

Echinochloa crus-galli [4] = test: as above; settings: application rate 320 g/ha, about 3 weeks after treatment, 100% = plants have died, 0% = like control plants
Description: as §1

Ipomoea purpurea [5] = test: as above; settings: rated visually after about 3 weeks
Description: as §1

Matricaria inodora [6] = test: as above; settings: rated visually after about 3 weeks
Description: as §1

Polygonum convolvulus [7] = test: as above; settings: rated visually after about 3 weeks
Description: as §1

Setaria viridis [8] = test: as above; settings: about 3 weeks after treatment, 100% = plants have died, 0% = like control plants
Description: as §1

Stellaria media [9] = test: as above; settings: rated visually after about 3 weeks
Description: as §1

Veronica persica = test: as above; settings: about 3 weeks after treatment, 100% = plants have died, 0% = like control plants
Description: as §1

Viola tricolor [10] = test: as above; settings: rated visually after about 3 weeks
Description: as §1

Abutilon theophrasti [11] = test: Pre-emergence herbicidal action (Experimental Part 1, B); settings: scored visually after about 3 weeks
Source text: (§2) Seeds of monocotyledonous and dicotyledonous weed plants and crop plants were placed in plastic or organic planting pots and covered with soil. The compounds of the invention, formulated in the form of wettable powders (WP) or as emulsion concentrates (EC), were then applied onto the surface of the covering soil as aqueous suspension or emulsion with addition of 0.5% additive at a water application rate of 600 l/ha (converted). After the treatment, the pots were placed in a greenhouse and kept under good growth conditions for the test plants. After about 3 weeks, the effect of the preparations was scored visually in comparison with untreated controls as percentages. For example, 100% activity=the plants have died, 0% activity=like control plants. Tables B1 to B14 below show the effects of selected compounds of the general formula (I) according to Tables I.1 to I.116 on various harmful plants and an application rate corresponding to 1280 g/ha or 320 g/ha, which were obtained by the experimental procedure mentioned above.

Alopecurus myosuroides [12] = test: as above; settings: scored visually after about 3 weeks
Source text: as §2

Amaranthus retroflexus [13] = test: as above; settings: scored visually after about 3 weeks
Source text: as §2

Avena fatua = test: as above; settings: scored visually after about 3 weeks
Source text: as §2

Echinochloa crus-galli [14] = test: as above; settings: application rate 320 g/ha, scored visually after about 3 weeks
Source text: as §2

Ipomoea purpurea [15] = test: as above; settings: application rate 320 g/ha, scored visually after about 3 weeks
Source text: as §2

Lolium rigidum = test: as above; settings: application rate 1280 g/ha, scored visually after about 3 weeks
Source text: as §2

Matricaria inodora [16] = test: as above; settings: scored visually after about 3 weeks
Source text: as §2

Polygonum convolvulus [17] = test: as above; settings: scored visually after about 3 weeks
Source text: as §2

Setaria viridis [18] = test: as above; settings: scored visually after about 3 weeks
Source text: as §2

Stellaria media [19] = test: as above; settings: scored visually after about 3 weeks
Source text: as §2

Viola tricolor [20] = test: as above; settings: scored visually after about 3 weeks
Source text: as §2

For CCOC(=O)OC1C(C)=CC(=O)N1c1cc(C(C)(C)C)on1 (centres unmarked) [I.11-162, 5-Ethoxycarbonyloxy-4-methyl-1-(5-tert-butyl-1,2-isoxazol-3-yl)-1,5-dihydro-2H-pyrrol-2-one], the “herbicidal activity on Abutilon theophrasti (visual rating vs untreated controls)” value (Abutilon theophrasti [1]; application rate 320 g/ha) was 100%, the “herbicidal activity on Alopecurus myosuroides (visual rating vs untreated controls)” value (Alopecurus myosuroides [2]) was 100% and the “herbicidal activity on Amaranthus retroflexus (visual rating vs untreated controls)” value (Amaranthus retroflexus [3]; application rate 320 g/ha) was 100%. For the same compound, the “herbicidal activity on Echinochloa crus-galli (visual rating vs untreated controls)” value (Echinochloa crus-galli [4]) was 90%, the “Ipomoea purpurea, herbicidal activity” value (Ipomoea purpurea [5]; application rate 320 g/ha) was 90% and the “Matricaria inodora, herbicidal activity” value (Matricaria inodora [6]; application rate 320 g/ha) was 100%. The “Polygonum convolvulus, herbicidal activity” value (shortened to “Polygonum convolvulus”) (Polygonum convolvulus [7]; application rate 320 g/ha) was 100%, the “herbicidal activity on Setaria viridis (visual rating vs untreated controls)” value (Setaria viridis [8]; application rate 320 g/ha) was 100% and the “Stellaria media, herbicidal activity” value (Stellaria media [9]; application rate 320 g/ha) was 100%. The “herbicidal activity on Veronica persica (visual rating vs untreated controls)” value (Veronica persica; application rate 320 g/ha) was 100%, the “Viola tricolor, herbicidal activity” value (Viola tricolor [10]; application rate 320 g/ha) was 100% and the “Abutilon theophrasti, herbicidal activity” value (Abutilon theophrasti [11]; application rate 320 g/ha) was 100%. For the same compound, the “Alopecurus myosuroides, herbicidal activity” value (Alopecurus myosuroides [12]; application rate 320 g/ha) was 100%, the “Amaranthus retroflexus, herbicidal activity” value (Amaranthus retroflexus [13]; application rate 320 g/ha) was 100% and the “Avena fatua, herbicidal activity” value (Avena fatua; application rate 320 g/ha) was 90%. The “Echinochloa crus-galli, herbicidal activity” value (Echinochloa crus-galli [14]) was 100%, the “Ipomoea purpurea, herbicidal activity” value (Ipomoea purpurea [15]) was 90% and the “Lolium rigidum, herbicidal activity” value (Lolium rigidum) was 90%. For the same compound, the “Matricaria inodora, herbicidal activity” value (Matricaria inodora [16]; application rate 320 g/ha) was 100%, the “Polygonum convolvulus” value (Polygonum convolvulus [17]; application rate 320 g/ha) was 100% and the “Setaria viridis, herbicidal activity” value (Setaria viridis [18]; application rate 320 g/ha) was 100%. For the same compound, the “Stellaria media, herbicidal activity” value (Stellaria media [19]; application rate 320 g/ha) was 100% and the “Viola tricolor, herbicidal activity” value (Viola tricolor [20]; application rate 320 g/ha) was 100%.

With CCOC(=O)OC1C=C(C)C(=O)N1c1cc(C(F)(F)F)c(Cl)cn1 (centres unmarked) [I.12-451] the “herbicidal activity on Abutilon theophrasti (visual rating vs untreated controls)” value (Abutilon theophrasti [1]; application rate 320 g/ha) was 100%, the “herbicidal activity on Abutilon theophrasti (visual rating vs untreated controls)” value (Abutilon theophrasti [1]; application rate 1280 g/ha) was 100% and the “herbicidal activity on Amaranthus retroflexus (visual rating vs untreated controls)” value (Amaranthus retroflexus [3]; application rate 320 g/ha) was 100%. The “herbicidal activity on Amaranthus retroflexus (visual rating vs untreated controls)” value (Amaranthus retroflexus [3]; application rate 1280 g/ha) was 100%, the “Ipomoea purpurea, herbicidal activity” value (Ipomoea purpurea [5]; application rate 320 g/ha) was 100% and the “Ipomoea purpurea, herbicidal activity” value (Ipomoea purpurea [5]; application rate 1280 g/ha) was 100%. For the same compound, the “Matricaria inodora, herbicidal activity” value (Matricaria inodora [6]; application rate 320 g/ha) was 90%, the “Matricaria inodora, herbicidal activity” value (Matricaria inodora [6]; application rate 1280 g/ha) was 100% and the “Polygonum convolvulus” value (Polygonum convolvulus [7]; application rate 320 g/ha) was 100%. For the same compound, the “Polygonum convolvulus” value (Polygonum convolvulus [7]; application rate 1280 g/ha) was 100%, the “herbicidal activity on Setaria viridis (visual rating vs untreated controls)” value (Setaria viridis [8]; application rate 320 g/ha) was 100% and the “herbicidal activity on Setaria viridis (visual rating vs untreated controls)” value (Setaria viridis [8]; application rate 1280 g/ha) was 100%. The “Stellaria media, herbicidal activity” value (Stellaria media [9]; application rate 320 g/ha) was 100%, the “Stellaria media, herbicidal activity” value (Stellaria media [9]; application rate 1280 g/ha) was 100% and the “herbicidal activity on Veronica persica (visual rating vs untreated controls)” value (Veronica persica; application rate 1280 g/ha) was 100%. For the same compound, the “Viola tricolor, herbicidal activity” value (Viola tricolor [10]; application rate 320 g/ha) was 100%, the “Viola tricolor, herbicidal activity” value (Viola tricolor [10]; application rate 1280 g/ha) was 100% and the “Abutilon theophrasti, herbicidal activity” value (Abutilon theophrasti [11]; application rate 1280 g/ha) was 100%. The “Alopecurus myosuroides, herbicidal activity” value (Alopecurus myosuroides [12]; application rate 1280 g/ha) was 90%, the “Amaranthus retroflexus, herbicidal activity” value (Amaranthus retroflexus [13]; application rate 320 g/ha) was 100% and the “Amaranthus retroflexus, herbicidal activity” value (Amaranthus retroflexus [13]; application rate 1280 g/ha) was 100%. The “Avena fatua, herbicidal activity” value (Avena fatua; application rate 1280 g/ha) was 90%, the “Matricaria inodora, herbicidal activity” value (Matricaria inodora [16]; application rate 1280 g/ha) was 90% and the “Polygonum convolvulus” value (Polygonum convolvulus [17]; application rate 1280 g/ha) was 100%. For the same compound, the “Setaria viridis, herbicidal activity” value (Setaria viridis [18]; application rate 320 g/ha) was 90%, the “Setaria viridis, herbicidal activity” value (Setaria viridis [18]; application rate 1280 g/ha) was 100% and the “Stellaria media, herbicidal activity” value (Stellaria media [19]; application rate 320 g/ha) was 100%. The “Stellaria media, herbicidal activity” value (Stellaria media [19]; application rate 1280 g/ha) was 100%, the “Viola tricolor, herbicidal activity” value (Viola tricolor [20]; application rate 320 g/ha) was 100% and the “Viola tricolor, herbicidal activity” value (Viola tricolor [20]; application rate 1280 g/ha) was 100%.
